US20100226922A1, “SPECIFIC PROTEASE INHIBITORS AND THEIR USE IN CANCER THERAPY” (priority 2006, published 2010)

What was measured:
FaDu carcinoma cells = experiment: Proliferation (cell numbers) of FaDu carcinoma cells; assay type: cell-based, human
Protocol: We further investigated the significance of PS activity on EpCAM-mediated growth transformation of two cell types. Murine NIH3T3 transfectants (which were grown and transfected as described in Example 1) that ectopically express EpCAM, and FaDu carcinoma cells that naturally express EpCAM were treated with the DAPT over 4 days. […] Noteworthy, besides its capacity to rescue cells from DAPT-mediated growth inhibition, the expression of EpIC-YFP did even further increase proliferation of EpCAM-expressing FaDu carcinoma cells. Also, siRNA-mediated TACE reduction of proliferation of FaDu cells was tested. […] Modest effects may be explained by the comparatively low transfection efficiency of this cell line (FIG. 3A).

[1] = test system: EpCAM-negative NIH3T3 control cells; experiment: Proliferation of EpCAM-negative NIH3T3 control cells; assay type: cell-based, murine; conditions: treatment with DAPT
Protocol: (§1) We further investigated the significance of PS activity on EpCAM-mediated growth transformation of two cell types. Murine NIH3T3 transfectants (which were grown and transfected as described in Example 1) that ectopically express EpCAM, and FaDu carcinoma cells that naturally express EpCAM were treated with the DAPT over 4 days. […] Noteworthy, besides its capacity to rescue cells from DAPT-mediated growth inhibition, the expression of EpIC-YFP did even further increase proliferation of EpCAM-expressing FaDu carcinoma cells.

[2] = test system: NIH3T3 transfectants that ectopically express EpCAM; experiment: EpCAM-mediated growth transformation (cell numbers), NIH3T3 transfectants ectopically expressing EpCAM; assay type: cell-based, murine
Protocol: as §1

[3] = test system: EpEX shedding in FaDu cells; experiment: EpEX shedding by FaDu cells expressing endogenous EpCAM; assay type: cell-based, human; conditions: treated with TAPI-2
Protocol: The soluble ectodomain EpEX was detected in cell-free supernatants FaDu cells (Experiment was carried out as described for HEK293 cells).
(§2) Next, HEK293 cells were transiently transfected with EpCAM-YFP, treated with 40 μM TACE inhibitor TAPI-2 (Biomol, Germany) and EpIC formation monitored as described above for the inhibition of presenilin-2. […] Finally, the effect of TACE inhibition on the generation of the EpCAM ectodomain was assessed. HEK293-EpCAM cells were cultured two days in the presence or absence of TAPI-2 (40 μM) and cell-free conditioned supernatants were collected upon centrifugation (13,000 rpm, 10 min, 4° C.). Thereafter, immunoprecipitations were conducted with antibodies specific for EpEX as described above. […] In all cases, EpEX was devoid of the EpIC domain as it no longer reacted with the EpIC-specific antibody. Ectodomain shedding may thus be a basic requirement for the cleavage of EpIC, as is the case for certain other receptors (Medina and Dotti, 2003, Cell Signal 15: 829-841).

[4] = test system: EpCAM-YFP cleavage in HEK293 cells; experiment: EpIC formation (EpCAM cleavage) by immunoblot in HEK293 cells transiently transfected with EpCAM-YFP; assay type: cell-based, human; conditions: for EpIC cleavage / release of EpIC-YFP from EpCAM-YFP: single cells incubated with recombinant EpEX, monitored over time
Excerpt: In the beginning of the study nothing was known about the molecular mechanisms underlying the signalling mechanisms of EpCAM. In order to test for potential EpCAM cleavage, full-length EpCAM was C-terminally fused to the yellow fluorescence protein to generate EpCAM-YFP. Similarly, a potential intracellular domain of EpCAM (EpIC), starting with serine^289, was fused to the YFP moiety to generate EpIC-YFP. For this purpose, EpCAM or EpIC cDNA sequences were cloned into peYFP-N1 (BD Biosciences, Heidelberg Germany). […] HEK293 cells are human embryonic kidney cells, which were cultured in standard DMEM containing 10% fetal calf serum and passaged three times per week. Transfection was carried out with MATra reagent (IBA, Göttingen, Germany) in six-well plates (5×10^5 cells/well) according to the manufacturer's protocol. One microgram of plasmid DNA was transfected per sample for a time period of 24 h. For immunoblot analysis, 1×10^6 cells were lysed in 100 μl lysis buffer (TBS/1% triton and protease inhibitors). Lysates were pre-cleared upon centrifugation (13.000 rpm, 4° C., 10 min), separated upon SDS-PAGE, and transferred onto PVDF membranes (Millipore, Bedford, US). The expression of both proteins was assessed upon immunobloting with EpIC- (A20 or 1144, which are α-EpIC antibodies; Santa Cruz Biotech, USA and Epitomics, USA) and YFP-specific antibodies in combination with horseradish peroxidase (HRP)-conjugated secondary antibodies and the ECL reagent (Amersham Biosciences).
The interaction of EpCAM with PS-2 and TACE indicates an involvement of these proteases in the proteolytic processing of EpCAM. To confirm this, HEK293 cells were transiently transfected with EpCAM-YFP expression plasmid. Briefly, 5×10^5 cells were plated in 6-well plates and transiently transfected 24 h later with 1 μg plasmid DNA using the MATra transfection reagent (IBA, Göttingen, Germany—1 μl reagent per 1 μg DNA). Transiently transfected HEK293 cells were treated with 60 nM of the γ-secretase inhibitor Compound E (Alexis Biochemicals, Germany) over a time period of two days. Proteins were separated by SDS-PAGE (30 mA/gel, 10% polyacrylamid gel), transferred onto PVDF membranes (Millipore, Bedford, US). Cleavage of EpIC was assessed with an EpIC-specific antibody (1144, Epitomics, USA) in a time kinetic. Treatment of transfected cells with compound E led to the reduced formation of EpIC along with the accumulation of intermediate cleavage products of EpCAM with a molecular weight of 33-37 kDa (FIG. 2C). These intermediates most likely represent EpCAM molecules lacking the ectodomain but which were not cleaved at the intracellular site. […] Thus, inhibition of presenilins has an impact on EpCAM signaling capacity.
as §2, with “Ectodomain shedding may thus be a basic requirement for the cleavage of EpIC, as is the case for certain other receptors (Medina and Dotti, 2003, Cell Signal 15: 829-841).” left out

[5] = test system: EpCAM ectodomain (EpEX) shedding in HEK293-EpCAM cells; experiment: EpCAM ectodomain shedding, immunoprecipitation from conditioned supernatant of HEK293-EpCAM cells; assay type: cell-based, human; conditions: TAPI-2 40 μM, two days, versus vehicle diluent
Protocol: In a next step, we assessed the existence of a shed ectodomain of EpCAM. Immunoprecipitation was performed with conditioned cell-free supernatants of HEK293-EpCAM and HEK293-control transfectants using antibodies specific for the extracellular (EpEC), i.e. HO.3 (an α-EpEC antibody; kind gift from Dr. Horst Lindhofer, TrionPharma, Munich, Germany) and intracellular (EpIC) domain of EpCAM (see above) essentially as described above. For a positive control, immunoprecipitation was performed in parallel with whole cell lysate of HEK293-EpCAM cells.
as §2, with “Ectodomain shedding may thus be a basic requirement for the cleavage of EpIC, as is the case for certain other receptors (Medina and Dotti, 2003, Cell Signal 15: 829-841).” left out

[6] = test system: TCF/Lef-responsive promoters in HEK293 cells; assay type: cell-based, human
[7] = target: EpCAM (epithelial cell adhesion molecule), full-length (human) (UniProt P16422); experiment: cell-based or functional assay
[8] = target: T1, EpCAM (epithelial cell adhesion molecule), full-length (human, UniProt P16422 24-314); experiment: cell-based or functional assay
T1 sequence (looked up): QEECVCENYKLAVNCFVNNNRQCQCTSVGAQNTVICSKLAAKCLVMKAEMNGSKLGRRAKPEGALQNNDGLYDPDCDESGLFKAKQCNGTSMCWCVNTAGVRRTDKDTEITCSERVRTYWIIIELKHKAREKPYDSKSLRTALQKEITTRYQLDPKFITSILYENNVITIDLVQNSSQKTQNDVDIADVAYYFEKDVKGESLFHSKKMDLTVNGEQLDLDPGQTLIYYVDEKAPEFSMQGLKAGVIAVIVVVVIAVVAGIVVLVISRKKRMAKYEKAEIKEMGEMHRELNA

[9] = test system: endogenous EpCAM in FaDu cells; experiment: EpIC retention in the plasma membrane of isolated FaDu cells treated with EpEX; assay type: cell-based, human
Protocol: In search for inducers of EpCAM signaling, we investigated the possibility that EpEX serves as a soluble ligand for EpCAM. EpCAM was described as a homophilic adhesion molecule, which can confer intra- and intercellular adhesion via two distinct, cystein-rich extracellular domains. […] HEK293 cells were plated as single cells, transfected with EpCAM-YFP expression vector, and incubated with recombinant EpEX. EpIC formation was then monitored over time by immunoblotting (see above). […] This observation was further corroborated in carcinoma cells with respect to the cleavage of endogenous EpCAM molecules. […] In the absence of EpEX in the culture medium, a mean of 74% of single cells retained EpIC in the plasma membrane, while only 39% of the cells did so following treatment with EpEX.

[10] = DAPT over 4 days, data not shown
[11] = DAPT plus EpIC-YFP expression (rescue)

With C[C@H](NC(=O)Cc1cc(F)cc(F)c1)C(=O)N[C@H](C(=O)OC(C)(C)C)c1ccccc1 [DAPT, N—[N-(3,5-difluorophenacetyl)-L-alanyl]-(S)-phenyl-glycine t-butyl ester] the “EpCAM-mediated growth transformation (cell numbers)” value (FaDu carcinoma cells; [10]) was “substantially inhibited”, the “cell numbers under DAPT with expression of EpIC-YFP” value (FaDu carcinoma cells; [11]) was “restored cell numbers to the level of untreated cells” and the cell proliferation [1] was “remained unaffected”. The “EpCAM-mediated growth transformation (cell numbers)” value [2, 10] was “substantially inhibited” and the “cell numbers under DAPT with expression of EpIC-YFP” value [2, 11] was “restored cell numbers to the level of untreated cells”.

CC(C)C[C@H](CC(=O)NO)C(=O)N[C@H](C(=O)N[C@@H](C)C(=O)NCCN)C(C)(C)C [TAPI-2] was tested, and the EpEX shedding [3] was “significant reduction of EpEX shedding”, the EpIC cleavage ([4]; 40 μM TAPI-2) was “substantial reduction of EpIC cleavage” and the c-Myc induction ([4]; 40 μM TAPI-2) was “decrease in c-Myc induction”. The “formation of EpCAM intermediates” value ([4]; 40 μM TAPI-2) was “no effect whatsoever” and the “ectodomain shedding in the cell culture supernatant” value [5] was “strong reduction of ectodomain shedding”.

For [Cl-].[Li+] [lithium chloride], the “mean induction of TCF/Lef” value [6] was 2.5 fold.

“recombinant EpCAM extracellular domain EpEX (EpEXrec) (from UniProt P16422 24-265) (ligand)” gave a single FaDu cells retaining EpIC in the plasma membrane, following treatment with EpEX [7] of 39% and a single FaDu cells retaining EpIC in the plasma membrane, in the absence of EpEX (control) [7] of 74%.

B1: four and a half LIM domain protein FHL2 (other, human, UniProt Q14192 1-279, looked up)
chain: MTERFDCHHCNESLFGKKYILREESPYCVVCFETLFANTCEECGKPIGCDCKDLSYKDRHWHEACFHCSQCRNSLVDKPFAAKEDQLLCTDCYSNEYSSKCQECKKTIMPGTRKMEYKGSSWHETCFICHRCQQPIGTKSFIPKDNQNFCVPCYEKQHAMQCVQCKKPITTGGVTYREQPWHKECFVCTACRKQLSGQRFTARDDFAYCLNCFCDLYAKKCAGCTNPISGLGGTKYISFEERQWHNDCFNCKKCSLSLVGRGFLTERDDILCPDCGKDI
With B1 the “cell numbers at day five of treatment with EpCAM- or FHL2-specific siRNA against control siRNA” value [8] was 2.5 fold lower.

B2: EpEXrec: recombinant EpCAM extracellular domain EpEX (protein)
chain: QEECVCENYKLAVNCFVNNNRQCQCTSVGAQNTVICSKLAAKCLVMKAEMNGSKLGRRAKPEGALQNNDGLYDPDCDESGLFKAKQCNGTSMCWCVNTAGVRRTDKDTEITCSERVRTYWIIIELKHKAREKPYDSKSLRTALQKEITTRYQLDPKFITSILYENNVITIDLVQNSSQKTQNDVDIADVAYYFEKDVKGESLFHSKKMDLTVNGEQLDLDPGQTLIYYVDEKAPEFSMQGLK
B2 was tested, and the “EpIC cleavage / release of EpIC-YFP from EpCAM-YFP” value [4] was “time-dependent induction of EpIC cleavage”, the “single cells that retained EpIC in the plasma membrane (mean)” value ([9]; after treatment with EpEX, 74% in the absence of EpEX) was 39% and the “EpIC immunoreactivity at the site of the plasma membrane” value ([9]; isolated FaDu cells treated with EpEX) was “significant loss”.

B3: heat-treated EpEX: heat-treated recombinant EpCAM ectodomain, used as inactive control (protein, UniProt P16422 24-265, looked up)
extracellular domain: B2 chain
modifications: extracellular domain heat-treated
In the case of B3, the “EpIC cleavage / release of EpIC-YFP from EpCAM-YFP” value [4] is reported as “did not result in a release of EpIC-YFP”.
